US7018836B1, “P-TEFb compositions, methods and screening assays” (priority 1996, dated 2006)

Tests used:
[1] = test system: mammalian cells in culture; conditions: DRB added to mammalian cells in culture; cited from earlier work
[2] = test system: CTD kinase found in the preinitiation complex; assay: Phosphorylation of RNA polymerase II in isolated preinitiation complexes (western blot); type: biochemical, Drosophila; conditions: 20 μM DRB
Protocol: Preinitiation complexes were formed on an immobilized actin template digested with HpaII (780 nt runoff) as described in Marshall and Price (Marshall and Price, 1992). The preinitiation complexes were isolated, washed once with 55 mM HKB (20 mM HEPES, 55 mM KCl and 200 μg/ml BSA) and resuspended into 55 mM HKB. Transcription was initiated by the addition of a pulse solution, which contained 5 μCi of [α-^32P]CTP and brought the reaction mixture to 600 μM in ATP, GTP and UTP and 2 mM MnCl2. MnCl2 increased the rate of initiation of preinitiation complexes, thereby, increasing the number of polymerases in early elongation complexes after a short pulse. After 15 seconds the reaction was stopped by the addition of EDTA to 10 mM.
Preinitiation complexes were formed on an immobilized actin template as described above in Methods, Section 3. […] Incubation of the preinitiation complexes with ATP caused a significant shift of the polymerase to the IIo form. The antibodies used to detect the large subunit of RNA polymerase II reacted more strongly with the […] of the large subunit than either the phosphorylated IIo form or the truncated IIb form. This phosphorylation was unaffected by the presence of 20 μM DRB.

Drosophila P-TEFb = type: biochemical; conditions: for inhibition of P-TEFb CTD kinase at higher ATP: 100 μM ATP
Protocol: (§1) 0.4 μl of purified RNA polymerase II and various protein samples were mixed in 18 μl of 55 mM HMK. The reaction was then initiated by the addition of 2 μl of a solution containing 2 μCi of [γ-^32P]ATP (ICN) and unlabeled ATP at 10 μM, or only unlabeled ATP at concentrations from 1 to 100 μM or other NTPs or dNTPs at concentrations of 1 to 100 μM. Reactions were incubated for the indicated times at 23° C. and then terminated with SDS loading buffer. Samples were analyzed on a 6–15% SDS polyacrylamide gel which was silver stained, dried and subjected to autoradiography if the assay contained label.

[3] = test system: transcription from HIV-1 LTR; assay: In vitro Tat transactivation in HNE with TAR and DTAR templates (FIG. 8); type: biochemical, human
Protocol: The transcription template (Nco I-digested pLTR-4/CAT vector containing the HIV-1 LTR from −153 to +80) was used in a pulse-chase transcription experiment. Reactions (12 μl total; 20 mM HEPES, pH 7.6, 7 mM MgCl2, 20 μg/ml DNA template, 3 μl HNE, 64 mM KCl, with 50 μM DRB or 0.3 μl Drosophila P-TEFb (Marshall et al., 1996) as indicated) were pre-incubated for 20 minutes at 30° C., pulsed for 2 minutes by adding ATP, GTP, UTP to 600 μM each and 5 μCi [α-^32P]CTP (˜0.1 mM), and chased for 5 minutes by adding CTP to 1.2 mM. Reactions were stopped, phenol extracted and analyzed on a 6% polyacrylamide gel as described (Marshall and Price, 1995). pLTR-TAR-Luc and pLTR-DTAR-Luc plasmids were digested with Eco RI to generate TAR and DTAR template that were used in the studies. The TAR template contains HIV-1 LTR from −475 to +76, while the DTAR template contains HIV-1 LTR from −475 to +19. Transcription with TAR and DTAR templates generates runoffs of 694 and 646 nucleotides, respectively. The transcription reaction mix contained 20 mM HEPES (pH7.6), 7 mM MgCl2, 60 mM KCl, 0.5 μl HNE (or depHNE as indicated), 20 μg/ml TAR template (or DTAR template as indicated), indicated amount of HIV-1 Tat (86 residue HIV-1 Tat followed by a streptavidin binding tag at its carboxyl terminus) and DRB. […] The transcripts were then analyzed on a 6% polyacrylamide gel as described (Marshall and Price, 1995).

Drosophila TFIIH = assay: CTD kinase assay with Drosophila TFIIH; type: biochemical; conditions: 20 μM DRB
Protocol: as §1
To determine whether P-TEFb was related to the protein kinase associated with TFIIH (Roy et al., 1994; Feaver et al., 1994; Cismowski et al., 1995; Serizawa et al., 1995; Shiekhattar et al., 1995), P-TEFb was compared with Drosophila TFIIH purified from Drosophila embryos by the method of Austin and Biggin (1996).

P-TEFb = assay: Phosphorylation by P-TEFb of RNA polymerase II in high salt washed early elongation complexes (western blot); type: biochemical, Drosophila; conditions: 20 μM DRB
[4] = test system: runoff transcription from HIV-1 LTR in HNE (human P-TEFb); assay: Transcription of HIV LTR template in HeLa nuclear extract (HNE), 633-nt runoff (FIG. 7A); type: biochemical; conditions: for IC50: HNE, HIV LTR template, read-out: 50% inhibition point, transcription assay
Protocol: The transcription template (Nco I-digested pLTR-4/CAT vector containing the HIV-1 LTR from −153 to +80) was used in a pulse-chase transcription experiment. Reactions (12 μl total; 20 mM HEPES, pH 7.6, 7 mM MgCl2, 20 μg/ml DNA template, 3 μl HNE, 64 mM KCl, with 50 μM DRB or 0.3 μl Drosophila P-TEFb (Marshall et al., 1996) as indicated) were pre-incubated for 20 minutes at 30° C., pulsed for 2 minutes by adding ATP, GTP, UTP to 600 μM each and 5 μCi [α-^32P]CTP (˜0.1 mM), and chased for 5 minutes by adding CTP to 1.2 mM. Reactions were stopped, phenol extracted and analyzed on a 6% polyacrylamide gel as described (Marshall and Price, 1995). pLTR-TAR-Luc and pLTR-DTAR-Luc plasmids were digested with Eco RI to generate TAR and DTAR template that were used in the studies. The TAR template contains HIV-1 LTR from −475 to +76, while the DTAR template contains HIV-1 LTR from −475 to +19. Transcription with TAR and DTAR templates generates runoffs of 694 and 646 nucleotides, respectively. The transcription reaction mix contained 20 mM HEPES (pH7.6), 7 mM MgCl2, 60 mM KCl, 0.5 μl HNE (or depHNE as indicated), 20 μg/ml TAR template (or DTAR template as indicated), indicated amount of HIV-1 Tat (86 residue HIV-1 Tat followed by a streptavidin binding tag at its carboxyl terminus) and DRB. The reaction mix was pre-incubated for 15 minutes at 30° C. and the transcription was started by adding nucleotides to final concentrations of 50 μM ATP, 50 μM GTP, 50 μM UTP, 10 μM CTP, and 5 μCi [α-^32P]CTP (˜0.1 mM), and continuously labeled for 20 minutes, or by adding nucleotides to final concentrations of 50 μM ATP, 50 μM GTP, 50 μM UTP, and 5 μCi [α-^32P]CTP (˜0.1 mM), and pulsed for 2 minutes. The reactions were stopped and reaction mix were phenol-extracted. The transcripts were then analyzed on a 6% polyacrylamide gel as described (Marshall and Price, 1995).

| SMILES | inhibition in the production of mature mRNA [1] [%] | phosphorylation of RNA polymerase II to IIo in preinitiation complexes incubated with ATP [2] | inhibition of P-TEFb CTD kinase (Drosophila P-TEFb; 10 μM ATP, DRB at 10 μM) | sensitivity of CTD kinase activity of P-TEFb (Drosophila P-TEFb; 20 μM DRB) | inhibition of P-TEFb CTD kinase at higher ATP (Drosophila P-TEFb) | effect of DRB on Tat-stimulated runoff ([3]; 50 μM DRB) | sensitivity to DRB of the effect of Tat on initiation ([3]; pulse-only protocol) | sensitivity of CTD kinase activity of TFIIH (Drosophila TFIIH) | ability of P-TEFb to phosphorylate RNA polymerase II in an early elongation complex (P-TEFb) | IC50 [4] [µM] | amount of H-8 required relative to DRB to inhibit the kinase to the same level (Drosophila P-TEFb; 10 μM ATP) | ratio of 50% inhibition points (H-8/DRB), transcription assay [4] |
| --- | --- | --- | --- | --- | --- | --- | --- | --- | --- | --- | --- | --- |
| OC[C@H]1O[C@@H](n2cnc3cc(Cl)c(Cl)cc32)[C@H](O)[C@@H]1O [DRB, 5,6-dichloro-1-β-D-ribofuranosylbenzimidazole] | 95 | unaffected | strongly inhibited | sensitive | less effective | mostly inhibited | not sensitive | unaffected | inhibited | 1 |  |  |
| CNCCNS(=O)(=O)c1cccc2cnccc12 [H-8] |  |  |  |  | less effective |  |  |  |  | 23 | approximately 10 times | 23 |
